The source of these data is paper PMC9814205, “Targeting undruggable carbohydrate recognition sites through focused fragment library design” (Communications Chemistry, 2022).

“Also recorded” adds a separate entry of the source.

One data set concerns the target DC-SIGN. Conditions: stated in SI text, method and reference not given; cited from earlier work.
In the next data set the target is Langerin and DC-SIGN. Conditions: cited from earlier work.
Another data set concerns the target T1, 5FW LecA (PA-IL) (Pseudomonas aeruginosa, UniProt Q05097).
T1 construct: made in house
Briefly: PrOF NMR with 5-fluorotryptophan-labeled LecA. The format is binding. The method, then:
PrOF NMR was performed as reported previously. Briefly, 150 µM 5FW LecA was recorded alone and in the presence of DMSO or 2–4 mM compounds in TBS/Ca^2+ buffer. The difference in chemical shift perturbations of W42 in 5FW LecA free vs bound forms was followed to determine Kd values of compounds. The Kd values were calculated according to the one-site-binding model in Origin(Pro) 2020b (OriginLab Corp., USA) from two or three independent titrations. Ligand efficiency values were calculated according to Eq. (1) for a temperature of 310 K.

A further data set has as its system Raji cells. Briefly: Cytotoxicity observed in cellFy. The class given is cell-based. Conditions: at low concentrations; up to 10 mM. The method, then: (§1) The cellFy experiments using Langerin^+ and DC-SIGN^+ Raji cell lines were performed as described before. Briefly, 50k cells were plated in a 96-well plate (clear, round bottom; Greiner Bio-One and mixed with varying concentrations of malonates 58, D-mannose and 0.025 mg mL^−1 FITC-conjugated dextran (500 kDa, Sigma Aldrich) in a final volume of 50 µL following incubation for 30 min on ice. After centrifugation at 500 g for 3 min at 4 °C, the supernatant was discarded. After washing cells were treated with 50 µL 4 % paraformaldehyde (Roti-Histofix, Carl Roth) for 20 min on ice and resuspended in 100 µL fresh culture medium. The fluorescence of cells was measured by flow cytometry (MACSQuant Analyzer 16). Data was analyzed in FlowJo.

In the next data set the target is T2, LecB (PA-IIL) (Pseudomonas aeruginosa, UniProt Q9HYN5).
T2 construct: made in house
T2 sequence (Q9HYN5 entry or part of it): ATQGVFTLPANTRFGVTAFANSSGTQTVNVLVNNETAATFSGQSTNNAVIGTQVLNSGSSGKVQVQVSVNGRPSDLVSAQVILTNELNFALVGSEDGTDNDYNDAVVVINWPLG
In words: 1H-15N TROSY NMR with 15N LecB. The format is binding. The method, then: The ^1H-^15N TROSY pulse sequence trosyf3gpphsi19 with 128 increments and 32 scans per increment was applied for 0.15 mM ^15N LecA and 0.07 mM LecB in HBS/Ca^2+ buffer (20 mM HEPES pH 7.4, 150 mM NaCl, 10 mM CaCl2, 10% D2O and 100 µM sodium trimethylsilylpropanesulfonate (DSS) as internal reference) at 310 K. The ^1H-^15N HSQC pulse sequence hsqcf3gpph19 with 128 increments and 8 scans per increment was applied for 0.1 mM ^15N DC-SIGN and Langerin CRD in HBS/Ca^2+ buffer at 298 K. For screening of 650 non-fluorinated fragments of the general library against ^15N LecA, a mix of 10 compounds at 1 mM each was combined with 0.15 mM ^15N LecA in HBS/Ca^2+ buffer (20 mM HEPES pH 7.4, 150 mM NaCl, 10 mM CaCl2, 10% D2O and 100 µM sodium trimethylsilylpropanesulfonate (DSS) as internal reference, whereas the fragments with the MBP scaffolds were validated separately at 1 mM. Similarly, 9 nonfluorinated fragments from the MBP library were screened against ^15N-labeled DC-SIGN, LecA and LecB. To validate the fragment binding to proteins, we recorded ^1H-^15N HSQC and TROSY NMR of proteins in the presence of DMSO as negative control and 2 mM fragments in HBS/Ca^2+ buffer. Natural ligands were used as positive controls at 1 mM MeGal, MeFuc and 30 mM D-mannose to LecA/LecB and DC-SIGN CRD/Langerin CRD, respectively. Titration experiments with ^15N-labeled DC-SIGN CRD or LecB were recorded in HBS/Ca^2+ buffer with 30 mM CaCl2 and 0.25 to 4–8 mM malonic acid derivatives. The Kd values were calculated according to the one-site-binding model in Origin(Pro) 2020b (OriginLab Corp., USA). […]
All data were processed with NMRpipe[65] and analyzed with CcpNmr analysis. […] The changes in chemical shift perturbations (CSPs) were calculated according to Eq. (2):2 △δ=1/2△δH2+α△δN^2 in which δ is the difference in chemical shift (in ppm) and α is an empirical weighting factor of 0.14 for all amino acid backbone resonances. […]

The target in the next data set is T3, DC-SIGN^+ Raji cells (Homo sapiens, UniProt Q9NNX6).
T3 construct: expressed in transfected cells; host or cells: Raji cells (DC-SIGN+)
T3 sequence (Q9NNX6 1-404): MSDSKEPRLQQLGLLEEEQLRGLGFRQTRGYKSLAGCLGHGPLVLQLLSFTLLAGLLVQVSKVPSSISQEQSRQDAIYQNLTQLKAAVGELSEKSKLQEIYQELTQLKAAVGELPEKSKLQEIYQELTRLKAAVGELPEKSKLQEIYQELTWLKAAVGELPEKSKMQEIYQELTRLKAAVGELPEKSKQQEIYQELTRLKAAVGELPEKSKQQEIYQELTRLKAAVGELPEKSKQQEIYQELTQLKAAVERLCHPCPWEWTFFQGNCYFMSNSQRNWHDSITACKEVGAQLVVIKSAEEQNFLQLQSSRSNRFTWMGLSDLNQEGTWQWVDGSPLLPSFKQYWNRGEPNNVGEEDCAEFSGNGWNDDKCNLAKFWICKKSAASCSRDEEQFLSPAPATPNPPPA
In words: cellFy cell-based assay, FITC-dextran binding by flow cytometry. Conditions: D-mannose positive control. Here is the method:
as §1
A general note: A flow cytometer gives signals particle by particle.

The target in the next data set is T4, DC-SIGN CRD (CD209) (Homo sapiens, UniProt Q9NNX6).
T4 construct: the carbohydrate recognition domain (CRD) of DC-SIGN in ^1H-^15N HSQC/TROSY NMR experiments; made in house
T4 sequence (Q9NNX6 263-378 limits assumed): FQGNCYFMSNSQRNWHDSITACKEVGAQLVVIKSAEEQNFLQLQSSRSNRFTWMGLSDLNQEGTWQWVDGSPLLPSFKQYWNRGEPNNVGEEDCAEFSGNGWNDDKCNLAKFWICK
Briefly: 1H-15N HSQC NMR with 15N DC-SIGN CRD. The class given is binding. Here is the method: (§2) The ^1H-^15N TROSY pulse sequence trosyf3gpphsi19 with 128 increments and 32 scans per increment was applied for 0.15 mM ^15N LecA and 0.07 mM LecB in HBS/Ca^2+ buffer (20 mM HEPES pH 7.4, 150 mM NaCl, 10 mM CaCl2, 10% D2O and 100 µM sodium trimethylsilylpropanesulfonate (DSS) as internal reference) at 310 K. The ^1H-^15N HSQC pulse sequence hsqcf3gpph19 with 128 increments and 8 scans per increment was applied for 0.1 mM ^15N DC-SIGN and Langerin CRD in HBS/Ca^2+ buffer at 298 K. For screening of 650 non-fluorinated fragments of the general library against ^15N LecA, a mix of 10 compounds at 1 mM each was combined with 0.15 mM ^15N LecA in HBS/Ca^2+ buffer (20 mM HEPES pH 7.4, 150 mM NaCl, 10 mM CaCl2, 10% D2O and 100 µM sodium trimethylsilylpropanesulfonate (DSS) as internal reference, whereas the fragments with the MBP scaffolds were validated separately at 1 mM. Similarly, 9 nonfluorinated fragments from the MBP library were screened against ^15N-labeled DC-SIGN, LecA and LecB. To validate the fragment binding to proteins, we recorded ^1H-^15N HSQC and TROSY NMR of proteins in the presence of DMSO as negative control and 2 mM fragments in HBS/Ca^2+ buffer. Natural ligands were used as positive controls at 1 mM MeGal, MeFuc and 30 mM D-mannose to LecA/LecB and DC-SIGN CRD/Langerin CRD, respectively. Titration experiments with ^15N-labeled DC-SIGN CRD or LecB were recorded in HBS/Ca^2+ buffer with 30 mM CaCl2 and 0.25 to 4–8 mM malonic acid derivatives. The Kd values were calculated according to the one-site-binding model in Origin(Pro) 2020b (OriginLab Corp., USA). Ligand efficiency calculations were done according to Eq. (1) for a temperature of 298 K and 310 K for DC-SIGN CRD and LecB, respectively.1 LE=RTlnKd/HA, with the temperature T [K], the gas constant R [kcal mol^−1 K^−1], and the number of non-hydrogen atoms HA[56].
(§3) All data were processed with NMRpipe[65] and analyzed with CcpNmr analysis. For data analysis, the protein fingerprint of ^15N DC-SIGN (Table S7) or Langerin CRD was assigned as reported previously. The ^1H-^15N TROSY resonances of ^15N LecA and ^15N LecB were indexed with IDs due to a lack of protein backbone resonance assignment (Tables S8-S9). Next, resonance IDs from protein spectra were transferred to the spectra obtained in the presence of compounds in order to compare the changes in chemical shift perturbations for the fast exchange peaks. The changes in chemical shift perturbations (CSPs) were calculated according to Eq. (2):2 △δ=1/2△δH2+α△δN^2 in which δ is the difference in chemical shift (in ppm) and α is an empirical weighting factor of 0.14 for all amino acid backbone resonances. The threshold value was set based on three independent measurements of reference spectra to 0.01 ppm for LecA, LecB, DC-SIGN CRD and Langerin CRD.

Data set [1] has as its target T5, LecA (Pseudomonas aeruginosa, UniProt Q05097).
T5 construct: made in house
Briefly: SPR with immobilized LecA. The format is binding. Conditions: compounds at 0.2 and 1 mM. The method, then:
All experiments were performed on a BIACORE X100 instrument (GE Healthcare) at 25 °C in phosphate-buffered saline (10 mM phosphate buffer pH 7.4, 2.7 mM KCl, 137 mM NaCl, 0.05% Tween-20, 100 µM CaCl2, 5% DMSO). LecA was immobilized onto a CM7 chip (BIACORE) following standard amine coupling procedures. The CM7 chip was activated by three injections of a NHS/EDC mixture with a contact time of 540 s at a flow rate of 10 µL min^−1 until the response exceeded 800 RU, followed by multiple injections of LecA dissolved in 10 mM sodium acetate pH 4.5 (100 µg/mL) onto channel 2 (contact time of 540 s at a flow rate of 10 µL min^−1). A minimum of 10,000 RU of LecA was captured onto the chip. Initial binding screens were performed with the injections of 0.2 and 1 mM of each hydroxamate (association 30 s, dissociation 60 s, 30 µL min^−1 flow rate), to identify the initial binders eliciting dose-response behaviors. Injection of the positive control (0.1 mM 4-Nitrophenyl-β-D-galactoside) was included after every forth injection cycle to monitor the activity of immobilized LecA throughout the binding screen experiments. All data evaluation was performed using BIACORE X100 evaluation software (v.2.0).

For a further data set, the target named is T6, 15N LecA (Pseudomonas aeruginosa, UniProt Q05097).
T6 construct: made in house
T6 sequence (Q05097 whole entry): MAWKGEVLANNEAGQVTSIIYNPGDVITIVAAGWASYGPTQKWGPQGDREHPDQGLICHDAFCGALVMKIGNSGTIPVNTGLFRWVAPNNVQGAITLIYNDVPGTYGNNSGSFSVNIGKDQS
In words: 1H-15N TROSY NMR with 15N LecA. The class given is binding. Conditions: 4 mM analogs of 1, 1 mM marketed hydroxamates. The method, then: as §2, §3

The target of data set [2] is T5, LecA. In words: Competitive 19F T2-filtered NMR with reporter 5. The class given is binding. Conditions: 0.1 mM 5, 10 mM CaCl2, 3 mM competitor. The method, then: The analogs of 1 (5) and 58 (61) were used as fluorinated spy molecules in ^19F T2-filtered NMR experiments. Two samples containing 0.1 mM 5 or 61 alone or a 10 µM protein in TBS/EDTA buffer followed by addition of 10 mM CaCl2 and the carbohydrates: 1 mM MeGal (LecA), 1 mM MeFuc (LecB/BambL) and 30 mM D-mannose (DC-SIGN/Langerin). Similarly, 0.1 mM 5 was used to prioritize hydroxamate derivatives, where 3 mM analogs of 1 were added to the samples instead of the carbohydrates. The ^19F and ^19F T2-filtered spectra were recorded with 64 scans, a spectral width of 5 ppm, a transmitter offset at −155.5 ppm (5) and −155.5 ppm (61), the acquisition time of 0.8 s, 2 s relaxation time applying a T2-filter of 384 ms. All spectra were analyzed as described above.

T1 sequence (Q05097 2-122): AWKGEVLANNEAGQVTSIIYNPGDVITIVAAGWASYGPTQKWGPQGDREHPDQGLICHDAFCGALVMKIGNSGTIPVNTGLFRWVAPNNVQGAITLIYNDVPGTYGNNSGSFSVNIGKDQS
T5 sequence (Q05097 whole entry): as the sequence (Q05097 whole entry) above

As for `OC[C@H]1OC(O)[C@@H](O)[C@@H](O)[C@@H]1O` (stereo partly drawn) [D-mannose], the Kd (commonly the constant that tells how readily two partners part at equilibrium) at DC-SIGN is 3000 µM; on Langerin and DC-SIGN, 3500 to 6100 µM.

In the case of `O=C(O)C(C(=O)O)C1CCC(F)(F)C1` (stereo not drawn) [compound 58], the “binding to 5FW LecA (perturbation of W42) in PrOF NMR” value on 5FW LecA (PA-IL) (2 mM compound) is “perturbed W42”. Also, at 5FW LecA (PA-IL) (19F resonance of 0.15 mM 5FW LecA with 2 mM compound, DMSO 121.43), the “W2 [ppm]” value was 121.47 ppm. Also, the “W33 [ppm]” value at 5FW LecA (PA-IL) (19F resonance of 0.15 mM 5FW LecA with 2 mM compound, DMSO 121.67) is given as 121.77 ppm. In addition, the “W84 [ppm]” value at 5FW LecA (PA-IL) (19F resonance of 0.15 mM 5FW LecA with 2 mM compound, DMSO 123.50) was determined as 123.53 ppm. In addition, the cytotoxicity entry in the data set with Raji cells is on record as “negligible cytotoxicity; also recorded: low cytotoxicity”. Also, the dissociation constant (Kd) was 1200 ± 400 µM at LecB (PA-IIL) and 1200 ± 500 µM at DC-SIGN CRD (CD209) (15N DC-SIGN CRD, titration, one-site binding model, 30 mM CaCl2). In addition, the LE is 0.29 kcal mol^−1 HA^−1 on LecB (PA-IIL) (ligand efficiency calculated from Kd for LecB, 310 K) and 0.28 kcal mol^−1 HA^−1 at DC-SIGN CRD (CD209) (ligand efficiency calculated from Kd for DC-SIGN CRD, 298 K). In addition, the “inhibition of FITC-dextran binding / binding to DC-SIGN^+ cells” value at DC-SIGN^+ Raji cells is on record as “inhibited FITC-dextran binding to DC-SIGN similarly to D-mannose; also recorded: specifically bound to DC-SIGN^+ cells”.

In the case of `O=C(CCCCCCC(=O)Nc1ccccc1)NO` [compound 47, reference compound], the “Efficiency in SPR (normalized binding response)” value at LecA [1] was found to be 3.8%. Further, on 15N LecA, the “binding to 15N LecA in TROSY NMR” value is listed as “not tolerated; also recorded: none of the marketed metalloproteinase inhibitors (47, 49, 50) bound; also recorded: no binding”. Besides, the “competition of reporter 5 from LecA (recovery of 19F peak)” value on LecA [2] was “did not displace”.
